From ChEMBL document CHEMBL3885881, “DrugMatrix”

Species on record: Rattus norvegicus
Test: DrugMatrix - Regimen: Daily Repeat
Assay type: toxicity, organism-based, Sprague-Dawley
Parameters: regimen Daily Repeat, gender Male, age 6-8 weeks
Conditions: in vivo, po, route oral GAVAGE, […]; for ABSOLUTE BASOPHIL / ABSOLUTE EOSINOPHIL / ABSOLUTE LYMPHOCYTE / ABSOLUTE MONOCYTE / ABSOLUTE SEGMENTED NEUTROPHIL / BASOPHIL / EOSINOPHIL / ERYTHROCYTE COUNT / HEMATOCRIT / HEMOGLOBIN / LEUKOCYTE COUNT / LYMPHOCYTE / MEAN CORPUSCULAR HEMOGLOBIN / MEAN CORPUSCULAR HEMOGLOBIN CONCENTRATION / MEAN CORPUSCULAR VOLUME / MONOCYTE / NEUTROPHIL / NUCLEATED RED BLOOD CELLS / PLATELET COUNT: tissue Blood; for ALANINE AMINOTRANSFERASE / ALBUMIN / ALKALINE PHOSPHATASE / ASPARTATE AMINOTRANSFERASE / BLOOD UREA NITROGEN / CARBON DIOXIDE / CHLORIDE / CHOLESTEROL / CREATINE PHOSPHOKINASE / CREATININE / GLUCOSE / LACTATE DEHYDROGENASE / LIPASE / PHOSPHORUS / POTASSIUM / SODIUM / TOTAL BILIRUBIN / TOTAL PROTEIN / URIC ACID: tissue Plasma
[1] = 0 mg/kg, 72 h, dose level Control, time 3 day
[2] = 0 mg/kg, 120 h, dose level Control, time 5 day
[3] = 0 mg/kg, dose level Control, time 28 day
[4] = 20 mg/kg, 72 h, dose level Low, time 3 day

With CCCCCCCCCc1ccc(O)cc1 [4-NONYLPHENOL] the “ABSOLUTE BASOPHIL” value [1] was 0 CELLS/uL, the “ABSOLUTE EOSINOPHIL” value [1] was 0 CELLS/uL and the “ABSOLUTE LYMPHOCYTE” value [1] was 11091.17 CELLS/uL. The “ABSOLUTE MONOCYTE” value [1] was 172.17 CELLS/uL, the “ABSOLUTE SEGMENTED NEUTROPHIL” value [1] was 1186.67 CELLS/uL and the BASOPHIL [1] was 0%. For the same molecule, the EOSINOPHIL [1] was 0%, the “ERYTHROCYTE COUNT” value [1] was 5.87 x10E6/uL and the HEMATOCRIT [1] was 36.87%. For the same molecule, the HEMOGLOBIN [1] was 14.03 G/DL, the “LEUKOCYTE COUNT” value [1] was 12.45 x10E3/uL and the LYMPHOCYTE [1] was 88.67%. For the same molecule, the “MEAN CORPUSCULAR HEMOGLOBIN” value [1] was 23.93 pg, the “MEAN CORPUSCULAR HEMOGLOBIN CONCENTRATION” value [1] was 38.1 G/DL and the “MEAN CORPUSCULAR VOLUME” value [1] was 62.73 fL. For the same molecule, the MONOCYTE [1] was 1.5%, the NEUTROPHIL [1] was 9.83% and the “NUCLEATED RED BLOOD CELLS” value [1] was 0 /100WBC. The “PLATELET COUNT” value [1] was 1150.33 x10E3/uL, the “ALANINE AMINOTRANSFERASE” value [1] was 67.17 u/L and the ALBUMIN [1] was 4.03 G/DL. For the same molecule, the “ALKALINE PHOSPHATASE” value [1] was 462.5 u/L, the “ASPARTATE AMINOTRANSFERASE” value [1] was 88 u/L and the “BLOOD UREA NITROGEN” value [1] was 13.17 mg/dL. The “CARBON DIOXIDE” value [1] was 29.33 mmol/L, the CHLORIDE [1] was 101 MEQ/L and the CHOLESTEROL [1] was 69.17 mg/dL. The “CREATINE PHOSPHOKINASE” value [1] was 292.5 u/L, the CREATININE [1] was 0.17 mg/dL and the GLUCOSE [1] was 167.5 mg/dL. For the same molecule, the “LACTATE DEHYDROGENASE” value [1] was 198.5 u/L, the LIPASE [1] was 10.67 u/L and the PHOSPHORUS [1] was 11.73 mg/dL. The POTASSIUM [1] was 5.91 MEQ/L, the SODIUM [1] was 143.3 MEQ/L and the “TOTAL BILIRUBIN” value [1] was 0.18 mg/dL. The “TOTAL PROTEIN” value [1] was 5.7 G/DL, the “URIC ACID” value [1] was 1.3 mg/dL and the “ABSOLUTE BASOPHIL” value [2] was 0 CELLS/uL. For the same molecule, the “ABSOLUTE EOSINOPHIL” value [2] was 64.33 CELLS/uL, the “ABSOLUTE LYMPHOCYTE” value [2] was 12494.67 CELLS/uL and the “ABSOLUTE MONOCYTE” value [2] was 117 CELLS/uL. For the same molecule, the “ABSOLUTE SEGMENTED NEUTROPHIL” value [2] was 1340.67 CELLS/uL, the “NUCLEATED RED BLOOD CELLS” value [2] was 0 /100WBC and the “CARBON DIOXIDE” value [2] was 29.17 mmol/L. The “LACTATE DEHYDROGENASE” value [2] was 229.17 u/L, the LIPASE [2] was 10.83 u/L and the “URIC ACID” value [2] was 1.55 mg/dL. For the same molecule, the BASOPHIL [3] was 0.42%, the EOSINOPHIL [3] was 0.58% and the “ERYTHROCYTE COUNT” value [3] was 8.06 x10E6/uL. The HEMATOCRIT [3] was 48.44%, the HEMOGLOBIN [3] was 16.34 G/DL and the “LEUKOCYTE COUNT” value [3] was 13.04 x10E3/uL. The LYMPHOCYTE [3] was 85.12%, the “MEAN CORPUSCULAR HEMOGLOBIN” value [3] was 20.26 pg and the “MEAN CORPUSCULAR HEMOGLOBIN CONCENTRATION” value [3] was 33.74 G/DL. The “MEAN CORPUSCULAR VOLUME” value [3] was 60.1 fL, the MONOCYTE [3] was 1.44% and the NEUTROPHIL [3] was 11.28%. The “PLATELET COUNT” value [3] was 1226 x10E3/uL, the “ALANINE AMINOTRANSFERASE” value [3] was 28.6 u/L and the ALBUMIN [3] was 3.94 G/DL. The “ALKALINE PHOSPHATASE” value [3] was 254.6 u/L, the “ASPARTATE AMINOTRANSFERASE” value [3] was 67.8 u/L and the “BLOOD UREA NITROGEN” value [3] was 10.4 mg/dL. For the same molecule, the CHLORIDE [3] was 104.6 MEQ/L, the CHOLESTEROL [3] was 57.6 mg/dL and the “CREATINE PHOSPHOKINASE” value [3] was 224.8 u/L. It also gave a CREATININE [3] of 0.4 mg/dL, a GLUCOSE [3] of 140.6 mg/dL and a PHOSPHORUS [3] of 10.66 mg/dL. For the same molecule, the POTASSIUM [3] was 6.58 MEQ/L, the SODIUM [3] was 148.6 MEQ/L and the “TOTAL BILIRUBIN” value [3] was 0.24 mg/dL. The “TOTAL PROTEIN” value [3] was 6.64 G/DL, the “ABSOLUTE BASOPHIL” value [4] was 0 CELLS/uL and the “ABSOLUTE EOSINOPHIL” value [4] was 45.67 CELLS/uL. For the same molecule, the “ABSOLUTE LYMPHOCYTE” value [4] was 11853.67 CELLS/uL, the “ABSOLUTE MONOCYTE” value [4] was 45.67 CELLS/uL and the “ABSOLUTE SEGMENTED NEUTROPHIL” value [4] was 988.33 CELLS/uL. For the same molecule, the BASOPHIL [4] was 0%, the EOSINOPHIL [4] was 0.33% and the “ERYTHROCYTE COUNT” value [4] was 5.99 x10E6/uL. For the same molecule, the HEMATOCRIT [4] was 37.03%, the HEMOGLOBIN [4] was 14.3 G/DL and the “LEUKOCYTE COUNT” value [4] was 12.93 x10E3/uL. For the same molecule, the LYMPHOCYTE [4] was 91.67%, the “MEAN CORPUSCULAR HEMOGLOBIN” value [4] was 23.9 pg and the “MEAN CORPUSCULAR HEMOGLOBIN CONCENTRATION” value [4] was 38.6 G/DL. The “MEAN CORPUSCULAR VOLUME” value [4] was 61.9 fL, the MONOCYTE [4] was 0.33% and the NEUTROPHIL [4] was 7.67%. The “NUCLEATED RED BLOOD CELLS” value [4] was 0 /100WBC, the “PLATELET COUNT” value [4] was 1126 x10E3/uL and the “ALANINE AMINOTRANSFERASE” value [4] was 75.33 u/L. The ALBUMIN [4] was 3.8 G/DL, the “ALKALINE PHOSPHATASE” value [4] was 451.33 u/L and the “ASPARTATE AMINOTRANSFERASE” value [4] was 100 u/L. For the same molecule, the “BLOOD UREA NITROGEN” value [4] was 13 mg/dL, the “CARBON DIOXIDE” value [4] was 24.67 mmol/L and the CHLORIDE [4] was 102.67 MEQ/L. The CHOLESTEROL [4] was 62.67 mg/dL, the “CREATINE PHOSPHOKINASE” value [4] was 371 u/L and the CREATININE [4] was 0.19 mg/dL. For the same molecule, the GLUCOSE [4] was 168.67 mg/dL, the “LACTATE DEHYDROGENASE” value [4] was 255.33 u/L and the LIPASE [4] was 9.67 u/L. It also gave a PHOSPHORUS [4] of 11.97 mg/dL, a POTASSIUM [4] of 5.3 MEQ/L and an SODIUM [4] of 143.8 MEQ/L. The “TOTAL BILIRUBIN” value [4] was 0.2 mg/dL, the “TOTAL PROTEIN” value [4] was 5.33 G/DL and the “URIC ACID” value [4] was 1.77 mg/dL.
